{"source": "patent US20240102991A1", "about": "“Synthetic Fluorescent Protein Biosensors and Use Thereof in Drug Screening Methods” (The Regents of the University of Colorado, a body corporate, priority 2017, published 2024)", "system": "biosensor expressing cells (HEK293T)", "type": "cell-based, human", "data": [{"substance": "Cholera Toxin", "values": [{"measurement": "biosensors that respond in some way to the single drug treatment", "value": "> 80", "unit": "%"}]}]}
